Test results: patent US8952024B2, “Herbicidal pyrimidone derivatives” (E I du Pont de Nemours and Company, priority 2009, dated 2015)

Experiments:
Test in all cases: Test B pre-/postemergence plant response
Type in all cases: in vivo
kochia (Kochia scoparia) = test system: kochia (Kochia scoparia)
Excerpt: (§1) Seeds of plant species selected from blackgrass (Alopecurus myosuroides), downy bromegrass (Bromus tectorum), green foxtail (Setaria viridis), Italian ryegrass (Lolium multiflorum), wheat (Triticum aestivum), wild oat (Avena fatua), deadnettle (henbit deadnettle, Lamium amplexicaule), galium (catchweed bedstraw, Galium aparine), bermudagrass (Cynodon dactylon), Surinam grass (Brachiaria decumbens), cocklebur (Xanthium strumarium), corn (Zea mays), large crabgrass (Digitaria sanguinalis), woolly cupgrass (Eriochloa villosa), giant foxtail (Setaria faberii), goosegrass (Eleusine indica), johnsongrass (Sorghum halepense), kochia (Kochia scoparia), lambsquarters (Chenopodium album), morningglory (Ipomoea coccinea), nightshade (eastern black nightshade, Solanum ptycanthum), yellow nutsedge (Cyperus esculentus), pigweed (Amaranthus retroflexus), ragweed (common ragweed, Ambrosia elatior), Russian thistle (Salsola kali), soybean (Glycine max), sunflower (common oilseed sunflower, Helianthus annuus) and velvetleaf (Abutilon theophrasti) were planted into a blend of loam soil and sand and treated preemergence with test compounds formulated in a non-phytotoxic solvent mixture which included a surfactant.
(§2) At the same time, plants selected from these crop and weed species and also winter barley (Hordeum vulgare), canarygrass (Phalaris minor), chickweed (Stellaria media) and windgrass (Apera spica-venti) were planted in pots containing Redi-Earth® planting medium (Scotts Company, 14111 Scottslawn Road, Marysville, Ohio 43041) comprising spaghnum peat moss, vermiculite, wetting agent and starter nutrients and treated with postemergence applications of some of the test chemicals formulated in the same manner. Plants ranged in height from 2 to 18 cm (1- to 4-leaf stage) for postemergence treatments.
(§3) Treated plants and controls were maintained in a greenhouse for 13 to 15 days, after which time all treated plants were visually evaluated and compared to controls. Plant response ratings, summarized in Table B, are based on a scale of 0 to 100 where 0 is no effect and 100 is complete control. A dash (-) response means no test result.

[1] = test system: woolly cupgrass (Eriochloa villosa)
Excerpt: as §1, §2, §3

[2] = test system: johnsongrass (Sorghum halepense)
Excerpt: as §1, §2, §3

[3] = test system: ragweed (common ragweed, Ambrosia elatior)
Excerpt: as §1, §2, §3

[4] = test system: velvetleaf (Abutilon theophrasti)
Excerpt: as §1, §2, §3

[5] = test system: giant foxtail (Setaria faberii)
Excerpt: as §1, §2, §3

[6] = test system: pigweed (Amaranthus retroflexus)
Excerpt: as §1, §2, §3

corn (Zea mays) = test system: corn (Zea mays)
Excerpt: as §1, §2, §3

[7] = test system: blackgrass (Alopecurus myosuroides)
Excerpt: as §1, §2, §3

[8] = test system: downy bromegrass (Bromus tectorum)
Excerpt: as §1, §2, §3

soybean (Glycine max) = test system: soybean (Glycine max)
Excerpt: as §1, §2, §3

[9] = test system: Italian ryegrass (Lolium multiflorum)
Excerpt: as §1, §2, §3

[10] = test system: Surinam grass (Brachiaria decumbens)
Excerpt: as §1, §2, §3

[11] = 31 g ai/ha, postemergence, scale 0 to 100, 0 is no effect, 100 is complete control
[12] = 250 g ai/ha, Preemergence, 0 to 100 scale
[13] = Postemergence, 62 g ai/ha, scale 0 (no effect) to 100 (complete control), 13 to 15 days
[14] = Postemergence, 125 g ai/ha, visual rating after 13 to 15 days, scale 0 (no effect) to 100 (complete control)
[15] = Postemergence, 250 g ai/ha, scale 0 to 100 (0 no effect, 100 complete control)
[16] = Preemergence, 31 g ai/ha, scale 0 to 100 (0 no effect, 100 complete control)
[17] = Preemergence, 62 g ai/ha, scale 0 to 100 (0 no effect, 100 complete control)
[18] = Preemergence, 125 g ai/ha, scale 0 to 100, 0 no effect, 100 complete control

Structure (SMILES): O=C1CCCC(O)=C1C(=O)c1cnc(-c2cccc(Cl)c2)n(-c2ccc(Cl)cc2)c1=O [Compound 64]
- Plant response rating, Kochia (kochia (Kochia scoparia); [11]): 50
- Plant response rating, Kochia (kochia (Kochia scoparia); [12]): 95
- Plant response rating, Kochia (kochia (Kochia scoparia); [13]): 55
- Plant response rating, Kochia (kochia (Kochia scoparia); [14]): 80
- Plant response rating, Kochia (kochia (Kochia scoparia); [15]): 80
- Plant response rating, Kochia (kochia (Kochia scoparia); [16]): 0
- Plant response rating, Kochia (kochia (Kochia scoparia); [17]): 0
- Plant response rating, Kochia (kochia (Kochia scoparia); [18]): 45
- Plant response rating, Cupgrass, Woolly [1, 11]: 75
- Plant response rating, Cupgrass, Woolly [1, 12]: 10
- Plant response rating, Cupgrass, Woolly [1, 13]: 95
- Plant response rating, Cupgrass, Woolly [1, 14]: 98
- Plant response rating, Cupgrass, Woolly [1, 15]: 98
- Plant response rating, Cupgrass, Woolly [1, 16]: 0
- Plant response rating, Cupgrass, Woolly [1, 17]: 0
- Plant response rating, Cupgrass, Woolly [1, 18]: 0
- Plant response rating, Johnsongrass [2, 11]: 90
- Plant response rating, Johnsongrass [2, 12]: 75
- Plant response rating, Johnsongrass [2, 13]: 98
- Plant response rating, Johnsongrass [2, 14]: 100
- Plant response rating, Johnsongrass [2, 15]: 100
- Plant response rating, Johnsongrass [2, 16]: 0
- Plant response rating, Johnsongrass [2, 17]: 0
- Plant response rating, Johnsongrass [2, 18]: 55
- Plant response rating, Ragweed [3, 11]: 85
- Plant response rating, Ragweed [3, 13]: 85
- Plant response rating, Ragweed [3, 14]: 90
- Plant response rating, Ragweed [3, 15]: 90
- Plant response rating, Ragweed [3, 16]: 0
- Plant response rating, Ragweed [3, 17]: 50
- Plant response rating, Ragweed [3, 18]: 75
- Plant response rating, Velvetleaf [4, 11]: 85
- Plant response rating, Velvetleaf [4, 13]: 98
- Plant response rating, Velvetleaf [4, 14]: 98
- Plant response rating, Velvetleaf [4, 15]: 100
- Plant response rating, Velvetleaf [4, 16]: 65
- Plant response rating, Velvetleaf [4, 17]: 75
- Plant response rating, Velvetleaf [4, 18]: 95
- Plant response rating, Foxtail, Giant [5, 11]: 90
- Plant response rating, Foxtail, Giant [5, 12]: 65
- Plant response rating, Foxtail, Giant [5, 13]: 95
- Plant response rating, Foxtail, Giant [5, 14]: 98
- Plant response rating, Foxtail, Giant [5, 15]: 100
- Plant response rating, Foxtail, Giant [5, 16]: 20
- Plant response rating, Foxtail, Giant [5, 17]: 25
- Plant response rating, Foxtail, Giant [5, 18]: 35
- Plant response rating, Pigweed [6, 11]: 98
- Plant response rating, Pigweed [6, 13]: 100
- Plant response rating, Pigweed [6, 14]: 100
- Plant response rating, Pigweed [6, 15]: 100
- Plant response rating, Pigweed [6, 16]: 55
- Plant response rating, Pigweed [6, 17]: 75
- Plant response rating, Pigweed [6, 18]: 85
- Plant response rating, Corn (corn (Zea mays); [11]): 80
- Plant response rating, Corn (corn (Zea mays); [12]): 0
- Plant response rating, Corn (corn (Zea mays); [13]): 85
- Plant response rating, Corn (corn (Zea mays); [14]): 85
- Plant response rating, Corn (corn (Zea mays); [15]): 90
- Plant response rating, Corn (corn (Zea mays); [16]): 0
- Plant response rating, Corn (corn (Zea mays); [17]): 0
- Plant response rating, Corn (corn (Zea mays); [18]): 0
- Plant response rating, Blackgrass [7, 11]: 0
- Plant response rating, Blackgrass [7, 12]: 0
- Plant response rating, Blackgrass [7, 13]: 0
- Plant response rating, Blackgrass [7, 14]: 5
- Plant response rating, Blackgrass [7, 15]: 15
- Plant response rating, Blackgrass [7, 16]: 0
- Plant response rating, Blackgrass [7, 17]: 0
- Plant response rating, Blackgrass [7, 18]: 0
- Plant response rating, Bromegrass, Downy [8, 11]: 25
- Plant response rating, Bromegrass, Downy [8, 12]: 0
- Plant response rating, Bromegrass, Downy [8, 13]: 45
- Plant response rating, Bromegrass, Downy [8, 14]: 60
- Plant response rating, Bromegrass, Downy [8, 15]: 85
- Plant response rating, Bromegrass, Downy [8, 16]: 0
- Plant response rating, Bromegrass, Downy [8, 17]: 0
- Plant response rating, Bromegrass, Downy [8, 18]: 0
- Plant response rating, Soybean (soybean (Glycine max); [11]): 85
- Plant response rating, Soybean (soybean (Glycine max); [13]): 98
- Plant response rating, Soybean (soybean (Glycine max); [14]): 98
- Plant response rating, Soybean (soybean (Glycine max); [15]): 98
- Plant response rating, Ryegrass, Italian [9, 11]: 0
- Plant response rating, Ryegrass, Italian [9, 13]: 0
- Plant response rating, Ryegrass, Italian [9, 14]: 0
- Plant response rating, Ryegrass, Italian [9, 15]: 30
- Plant response rating, Ryegrass, Italian [9, 16]: 0
- Plant response rating, Ryegrass, Italian [9, 17]: 0
- Plant response rating, Ryegrass, Italian [9, 18]: 0
- Plant response rating, Surinam Grass [10, 11]: 85
- Plant response rating, Surinam Grass [10, 13]: 95
- Plant response rating, Surinam Grass [10, 14]: 98
- Plant response rating, Surinam Grass [10, 15]: 98
- Plant response rating, Surinam Grass [10, 16]: 0
- Plant response rating, Surinam Grass [10, 17]: 85
- Plant response rating, Surinam Grass [10, 18]: 85
